# Structures can show the parent of a compound that is named as a salt.
# Tests used:
# striatum = experiment: Transcriptional profiling on Affymetrix GeneChips, single dose, naïve mice: striatum; type: in vivo, C57BL/6 mice; details: striatum
# Procedure: (§1) Treated mice were sacrificed at 2, 7, or 12 hours. Tissues (liver, spleen, kidney, jejunum, cortex, hippocampus, striatum and whole blood) were collected and analyzed by transcriptional profiling on mouse Affymetrix GeneChips.
# (§2) Tissues (liver, spleen, kidney, jejunum, cortex, hippocampus, striatum and whole blood) were collected and analyzed by transcriptional profiling on mouse Affymetrix GeneChips.
# (§3) Animals were exposed to CO2 and whole blood collected via cardiac puncture. Two 100 μl aliquots of whole blood were collected in 1.5 mL microcentrifuge tubes and snap frozen in liquid nitrogen. Peripheral (liver, spleen, kidney and jejunum) and CNS brain (cerebellum, hippocampus, striatum and cortex) tissues were harvested and snap frozen in liquid nitrogen, with special care taken to collect tissues of similar size and from the same location. All samples were stored at −80° C. until RNA extraction was conducted.
# (§4) For RNA preparation, frozen tissues were placed in 2 mL RNAse-free 96-well blocks with 1.5 mL QIAzol Lysis Reagent (QIAgen) and a 3.2 mm stainless steel bead (BioSpec Products, Bartlesville, Okla.). Tissues were disrupted for four cycles of 45 seconds in a Mini-Beadbeater (Biospec Products). RNA was extracted in chloroform and the aqueous phase was mixed with an equal volume of 70% ethanol. Extracted RNA was applied to RNeasy 96 plates and purified by the spin method according to the manufacturer's protocol (RNeasy 96 Universal Tissue Protocol, QIAgen, Hilden Germany).
# (§5) Automated sample amplifications and biotin labelings were carried out using the NuGEN Ovation RNA Amplification system V2 (Cat #3100), Ovation WB reagent (Cat #1300) and Encore Biotin module (Cat #4200) (NuGEN Technologies, Inc, San Carlos, Calif.) according to manufacturer's recommendations using an Arrayplex automated liquid handler (Beckman Coulter, Indianapolis, Ind.). Two micrograms of biotin labeled sscDNA probe were hybridized to Affymetrix GeneChip Affymetrix HT_MG-430_PM plate arrays with modified conditions as described in Allaire et al. Washing and staining of the hybridized arrays were completed as described in the GeneChip Expression analysis technical manual for HT plate arrays using the Genechip® Array Station (Affymetrix, Santa Clara, Calif.) with modifications as described in Allaire et al. The processed GeneChip® plate arrays were scanned using GeneTitan scanner (Affymetrix, Santa Clara, Calif.).
# (§6) Affymetrix scans were subject to quality control (QC) measures. These tests included a visual inspection of the distribution of raw signal intensities and an assessment of RNA degradation, relative log expression (RLE), and normalized unsealed standard error (NUSE). All sample scans that passed these QC metrics were included in the analysis.
# (§7) All CEL files were subjected to GC-content-based Robust Multi-array Average (GCRMA) normalization (version 2.20.0) (Irizarry R A, et al. Nucleic Acids Res 2003; 31:e15; Li C, et al. Genome Biol 2001; 2:[…]0032). Expression levels were log (base 2) transformed.
# (§8) All calculations and analyses were carried out using R (version 2.11.1) and Bioconductor computational tools (Gentleman R. Springer Science+Business Media 2005).
# cortex = experiment: Transcriptional profiling on Affymetrix GeneChips, single dose, naïve mice: cortex; type: in vivo, C57BL/6 mice; details: for Number of differentially expressed genes identified: Cortex: Naïve, Single Dose, 100 mpk, vs Vehicle
# Procedure: as §1, §2, §3, §4, §5, §6, §7, §8
# [1] = 2 hr after single 100 mg/kg oral dose
# [2] = 12 hr after single 100 mg/kg oral dose
# [3] = cortex, 2 hr after single 100 mg/kg oral dose
# [4] = cortex, 7 hr after single 100 mg/kg oral dose
smiles,measurement,setting,value
"COC(=O)/C=C/C(=O)O [MMF, monomethyl fumarate]",Kdm3b mRNA fold change vs vehicle,striatum; [1],−1.56
same,Lrrc41 mRNA fold change vs vehicle,striatum; [1],−1.54
same,Top2b mRNA fold change vs vehicle,striatum; [1],−1.56
same,Aox1 mRNA fold change vs vehicle,striatum; 7 hr after single 100 mg/kg oral dose,1.95
same,Adamts9 mRNA fold change vs vehicle,striatum; [2],−2.58
same,Galnt12 mRNA fold change vs vehicle,striatum; [2],1.50
same,Hrh3 mRNA fold change vs vehicle,striatum; [2],1.59
same,Itpkb mRNA fold change vs vehicle,striatum; [2],−1.56
same,Pvrl3 mRNA fold change vs vehicle,striatum; [2],−1.80
same,St18 mRNA fold change vs vehicle,striatum; [2],−1.69
same,Tmprss6 mRNA fold change vs vehicle,striatum; [2],1.68
same,"Number of genes, DMF Only / MMF Only",cortex; Cortex,14
same,Arnt2 (1420670_PM_at) differential expression,"cortex; Cortex, 2 hr",−1.66
same,Atrn (1421166_PM_at) differential expression,"cortex; Cortex, 2 hr",−1.62
same,Chka (1442277_PM_at) differential expression,"cortex; Cortex, 2 hr",−1.53
same,Ednrb (1423594_PM_a_at) differential expression,"cortex; Cortex, 2 hr",−1.53
same,Extl3 (1421339_PM_at) differential expression,"cortex; Cortex, 2 hr",−1.57
same,Mkln1 (1416734_PM_at) differential expression,"cortex; Cortex, 2 hr",−1.85
same,Plekhm3 (1438108_PM_at) differential expression,"cortex; Cortex, 2 hr",−1.50
same,Ptk2 (1430827_PM_a_at) differential expression,"cortex; Cortex, 2 hr",−1.53
same,Ptprg (1456070_PM_at) differential expression,"cortex; Cortex, 2 hr",−1.83
same,Speer4b (1429992_PM_at) differential expression,"cortex; Cortex, 2 hr",−1.60
same,Tanc2 (1443123_PM_at) differential expression,"cortex; Cortex, 2 hr",−1.72
same,Top2b (1448458_PM_at) differential expression,"cortex; Cortex, 2 hr",−1.51
same,Trak2 (1429607_PM_at) differential expression,"cortex; Cortex, 2 hr",−1.57
same,Aox1 (1419435_PM_at) differential expression,"cortex; Cortex, 7 hr",1.65
same,Fgfbp1 (1419086_PM_at) differential expression,"cortex; Cortex, 7 hr",1.62
same,Aox1 (1419435_PM_at) differential expression,"cortex; Cortex, 12 hr",1.54
same,Number of differentially expressed genes identified: Cortex,cortex; 2 h after last dosing,9
same,Number of differentially expressed genes identified: Cortex,cortex; 7 h after last dosing,2
same,Number of differentially expressed genes identified: Cortex,cortex; 12 h after last dosing,1
same,FC Arnt2 (1420670_PM_at),"cortex; cortex, 100MMF-vs-Veh, 2 h",−1.66
same,FC Atrn (1421166_PM_at),"cortex; cortex, 100MMF-vs-Veh, 2 h",−1.62
same,FC Ednrb (1423594_PM_a_at),"cortex; cortex, 100MMF-vs-Veh, 2 h",−1.53
same,FC Mkln1 (1416734_PM_at),"cortex; cortex, 100MMF-vs-Veh, 2 h",−1.85
same,FC Plekhm3 (1438108_PM_at),"cortex; cortex, 100MMF-vs-Veh, 2 h",−1.50
same,FC Ptk2 (1430827_PM_a_at),"cortex; cortex, 100MMF-vs-Veh, 2 h",−1.53
same,FC Tanc2 (1443123_PM_at),"cortex; cortex, 100MMF-vs-Veh, 2 h",−1.72
same,FC Top2b (1448458_PM_at),"cortex; cortex, 100MMF-vs-Veh, 2 h",−1.51
same,FC Trak2 (1429607_PM_at),"cortex; cortex, 100MMF-vs-Veh, 2 h",−1.57
same,FC Aox1 (1419435_PM_at),"cortex; cortex, 100MMF-vs-Veh, 7 h",1.65
same,FC Fgfbp1 1419086_PM_at,"cortex; cortex, 100MMF-vs-Veh, 7 h",1.62
same,FC Aox1 (1419435_PM_at),"cortex; cortex, 100MMF-vs-Veh, 12 h",1.54
same,Arnt2 mRNA fold change vs vehicle,cortex; [3],−1.66
same,Atrn mRNA fold change vs vehicle,cortex; [3],−1.62
same,Chka mRNA fold change vs vehicle,cortex; [3],−1.53
same,Ednrb mRNA fold change vs vehicle,cortex; [3],−1.53
same,Extl3 mRNA fold change vs vehicle,cortex; [3],−1.57
same,Mkln1 mRNA fold change vs vehicle,cortex; [3],−1.85
same,Plekhm3 mRNA fold change vs vehicle,cortex; [3],−1.50
same,Ptk2 mRNA fold change vs vehicle,cortex; [3],−1.53
same,Ptprg mRNA fold change vs vehicle,cortex; [3],−1.83
same,Speer4b mRNA fold change vs vehicle,cortex; [3],−1.60
same,Tanc2 mRNA fold change vs vehicle,cortex; [3],−1.72
same,Top2b mRNA fold change vs vehicle,cortex; [3],−1.51
same,Trak2 mRNA fold change vs vehicle,cortex; [3],−1.57
same,Aox1 mRNA fold change vs vehicle,cortex; [4],1.65
same,Fgfbp1 mRNA fold change vs vehicle,cortex; [4],1.62
same,Aox1 mRNA fold change vs vehicle,"cortex; cortex, 12 hr after single 100 mg/kg oral dose",1.54

# — patent US20160115540A1, “PRODRUGS AND DRUGS” (Biogen MA Inc., priority 2013, published 2016)
